Experimental findings from patent US20230416248A1, “COMPOUNDS AND USES THEREOF” (Foghorn Therapeutics Inc., priority 2020, published 2023) are described below.

Molecules are shown by their SMILES. Where two headings read alike, the source gives them in different places.

One assay addresses T1, BRM (Homo sapiens, UniProt P51531).
T1 construct: made in house; host or cells: High Five insect cells
Description: ATPase catalytic activity of BRM, ADP-Glo in vitro biochemical assay. The settings on record: for IC50: 30 nM BRM, 400 μM ATP; for Ratio* (BRG1 IC50 (μM) divided by BRM IC50 (μM)): selectivity ratio BRG1 IC50 / BRM IC50. In outline:
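ADP-Glo luminescence, after depletion of leftover ATP and conversion of ADP, reported the activity. The 1 h room-temperature reaction held 400 μM ATP, 20 nM salmon sperm DNA and 30 nM BRM in 20 mM Tris pH 8, 20 mM MgCl2, 50 mM NaCl, 0.1% Tween-20, 1 mM DTT.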
In general terms: ADP-Glo first removes unused ATP, then detects ADP through luciferase.

A further assay has as its target T2, BRG-1 (Homo sapiens, UniProt P51532).
T2 construct: made in house; host or cells: High Five insect cells
Description: ATPase catalytic activity of BRG-1, ADP-Glo in vitro biochemical assay. Particulars: 30 nM BRG-1, 400 μM ATP, read-out: BRG1 IC50. In outline:
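In this in vitro format, BRG-1 hydrolysis product ADP is detected via a two-step ADP-Glo workup (ATP removal, then ADP-to-ATP conversion with luciferase detection) followed by a luminescence read.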

The mark [1] stands for this setting: ATPase catalytic activity, ADP-Glo.

T1 sequence (P51531 whole entry): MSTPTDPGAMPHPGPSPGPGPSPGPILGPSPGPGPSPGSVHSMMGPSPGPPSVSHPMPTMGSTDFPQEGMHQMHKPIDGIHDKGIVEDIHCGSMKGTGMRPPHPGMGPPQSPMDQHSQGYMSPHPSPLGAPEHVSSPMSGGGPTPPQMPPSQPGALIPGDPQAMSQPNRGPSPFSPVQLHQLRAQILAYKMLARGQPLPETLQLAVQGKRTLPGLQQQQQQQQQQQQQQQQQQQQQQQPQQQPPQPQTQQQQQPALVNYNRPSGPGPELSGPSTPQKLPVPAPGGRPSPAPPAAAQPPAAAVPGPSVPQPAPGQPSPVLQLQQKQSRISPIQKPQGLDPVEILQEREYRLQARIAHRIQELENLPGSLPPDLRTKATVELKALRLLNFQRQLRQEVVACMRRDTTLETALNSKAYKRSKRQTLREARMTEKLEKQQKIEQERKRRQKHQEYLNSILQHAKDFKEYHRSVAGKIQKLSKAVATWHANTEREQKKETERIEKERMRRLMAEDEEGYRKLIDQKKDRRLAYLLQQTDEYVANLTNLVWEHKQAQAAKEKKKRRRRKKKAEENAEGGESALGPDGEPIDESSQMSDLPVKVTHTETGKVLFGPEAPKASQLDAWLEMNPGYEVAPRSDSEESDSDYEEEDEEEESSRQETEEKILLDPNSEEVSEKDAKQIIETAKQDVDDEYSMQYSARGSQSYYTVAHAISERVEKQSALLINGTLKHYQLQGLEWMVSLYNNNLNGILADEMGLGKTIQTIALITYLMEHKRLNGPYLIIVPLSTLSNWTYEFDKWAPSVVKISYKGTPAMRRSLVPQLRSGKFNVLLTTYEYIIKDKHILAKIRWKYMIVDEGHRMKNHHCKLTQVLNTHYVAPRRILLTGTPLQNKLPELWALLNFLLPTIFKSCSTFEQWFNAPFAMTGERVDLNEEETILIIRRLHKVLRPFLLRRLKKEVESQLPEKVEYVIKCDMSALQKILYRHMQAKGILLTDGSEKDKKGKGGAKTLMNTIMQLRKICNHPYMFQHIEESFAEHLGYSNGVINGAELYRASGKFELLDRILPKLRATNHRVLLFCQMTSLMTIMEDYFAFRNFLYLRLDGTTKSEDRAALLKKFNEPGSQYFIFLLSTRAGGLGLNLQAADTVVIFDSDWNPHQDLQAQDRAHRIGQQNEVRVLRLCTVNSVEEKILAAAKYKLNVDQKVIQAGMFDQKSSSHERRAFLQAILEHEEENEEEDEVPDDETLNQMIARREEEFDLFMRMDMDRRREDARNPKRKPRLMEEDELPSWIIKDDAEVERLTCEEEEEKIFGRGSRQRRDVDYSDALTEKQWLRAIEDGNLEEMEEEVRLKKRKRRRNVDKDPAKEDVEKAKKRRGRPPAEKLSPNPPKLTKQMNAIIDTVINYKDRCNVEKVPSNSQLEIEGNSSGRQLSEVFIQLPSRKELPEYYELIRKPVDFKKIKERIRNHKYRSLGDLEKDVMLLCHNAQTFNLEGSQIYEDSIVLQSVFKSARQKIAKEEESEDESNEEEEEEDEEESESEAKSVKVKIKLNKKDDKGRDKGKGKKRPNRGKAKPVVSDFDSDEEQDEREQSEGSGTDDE
T2 sequence (P51532 whole entry): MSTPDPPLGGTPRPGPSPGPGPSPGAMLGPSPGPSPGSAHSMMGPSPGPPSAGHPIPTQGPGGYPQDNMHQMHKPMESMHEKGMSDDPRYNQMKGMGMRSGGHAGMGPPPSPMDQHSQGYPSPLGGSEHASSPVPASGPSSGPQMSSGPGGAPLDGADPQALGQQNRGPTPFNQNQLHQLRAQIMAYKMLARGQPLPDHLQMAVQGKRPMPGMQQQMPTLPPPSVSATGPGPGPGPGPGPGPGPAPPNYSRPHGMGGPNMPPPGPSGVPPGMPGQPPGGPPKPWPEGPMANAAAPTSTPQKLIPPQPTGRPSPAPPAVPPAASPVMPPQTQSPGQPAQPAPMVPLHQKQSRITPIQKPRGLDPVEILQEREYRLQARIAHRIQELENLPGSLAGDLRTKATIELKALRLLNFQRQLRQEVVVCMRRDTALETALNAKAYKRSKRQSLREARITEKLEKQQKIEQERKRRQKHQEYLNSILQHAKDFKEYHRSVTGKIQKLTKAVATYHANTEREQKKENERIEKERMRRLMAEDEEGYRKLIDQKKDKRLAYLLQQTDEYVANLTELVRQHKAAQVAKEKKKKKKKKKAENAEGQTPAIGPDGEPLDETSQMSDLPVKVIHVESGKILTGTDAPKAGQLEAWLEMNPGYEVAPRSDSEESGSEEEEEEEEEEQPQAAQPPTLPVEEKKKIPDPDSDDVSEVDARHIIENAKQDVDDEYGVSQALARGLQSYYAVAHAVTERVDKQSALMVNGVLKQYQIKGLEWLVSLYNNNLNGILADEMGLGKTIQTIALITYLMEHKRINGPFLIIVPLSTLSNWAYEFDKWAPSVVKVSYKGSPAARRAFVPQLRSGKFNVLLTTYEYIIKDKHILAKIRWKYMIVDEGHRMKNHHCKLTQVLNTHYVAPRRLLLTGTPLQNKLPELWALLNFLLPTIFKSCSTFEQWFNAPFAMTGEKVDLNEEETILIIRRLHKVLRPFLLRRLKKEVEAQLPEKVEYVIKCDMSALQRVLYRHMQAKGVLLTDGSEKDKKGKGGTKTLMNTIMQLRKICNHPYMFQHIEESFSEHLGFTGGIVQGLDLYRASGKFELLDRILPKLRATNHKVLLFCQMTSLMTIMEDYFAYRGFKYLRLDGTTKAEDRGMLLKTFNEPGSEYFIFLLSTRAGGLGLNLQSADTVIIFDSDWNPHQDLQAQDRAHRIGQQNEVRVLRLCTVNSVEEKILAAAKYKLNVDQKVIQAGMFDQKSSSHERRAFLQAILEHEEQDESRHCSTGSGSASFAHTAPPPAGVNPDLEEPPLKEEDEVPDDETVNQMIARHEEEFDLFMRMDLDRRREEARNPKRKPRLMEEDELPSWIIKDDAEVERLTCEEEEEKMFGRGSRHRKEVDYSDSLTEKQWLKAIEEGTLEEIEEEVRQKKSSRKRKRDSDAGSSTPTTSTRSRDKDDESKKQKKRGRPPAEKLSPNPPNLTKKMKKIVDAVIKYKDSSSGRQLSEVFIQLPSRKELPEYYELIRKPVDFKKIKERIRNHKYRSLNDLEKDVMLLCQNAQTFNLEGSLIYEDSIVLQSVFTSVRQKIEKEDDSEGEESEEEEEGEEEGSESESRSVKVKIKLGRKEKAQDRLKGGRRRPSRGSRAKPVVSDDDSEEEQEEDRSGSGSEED

In the case of `O=C(NCc1cc2nc(N3CCOc4cc(C(F)F)ccc43)ccc2cn1)c1ccc2c(c1)S(=O)(=O)CCOC2` [Compound 520], the results for the IC50 against BRM (setting [1]) and at BRG-1 (setting [1]) were 21.4 nM and 263 nM, respectively. Moreover, the “Ratio*” value on BRM (ratio of BRG1 IC50 to BRM IC50) amounted to 12.29.

Consider `CCOc1nc(-c2ccc3cnc(CNC(=O)c4ccc5c(c4)S(=O)(=O)CCOC5)cc3n2)ccc1Cl` [Compound 493], for which the IC50 at BRM (setting [1]) is 179 nM; on BRG-1 (setting [1]), 921 nM. For the same compound, the “Ratio*” value on BRM (ratio of BRG1 IC50 to BRM IC50) came to 5.15.

`O=C(NCc1cc2nc(N3CCCc4cc5c(cc43)OCO5)ccc2cn1)c1ccc2c(c1)S(=O)(=O)CCOC2` [Compound 792]: the IC50 on BRM (ADP-Glo ATPase assay) turned out to be 13.7 nM; at BRG-1 (ADP-Glo ATPase assay), 135 nM. Further, the “Ratio*” value on BRM (ratio BRG1 IC50 / BRM IC50) came to 9.88.

As for `COCCN1CCCc2c(-c3ccc4cnc(CNC(=O)c5ccc6c(c5)S(=O)(=O)CCOC6)cc4n3)cccc21` [Compound 84], the figures for the IC50 against BRM (ADP-Glo ATPase assay) and at BRG-1 (ADP-Glo ATPase assay) were 121 nM and 570 nM, respectively. In addition, the “Ratio* (BRG1 IC50 (μM) divided by BRM IC50 (μM))” value on BRM stood at 4.71.

With `COc1cc(C2CC2)ccc1-c1ccc2cnc(CNC(=O)c3ccc4c(c3)S(=O)(=O)CCOC4)cc2n1` [Compound 387], the IC50 against BRM (setting [1]) was 68.3 nM; on BRG-1 (setting [1]), 727 nM. In addition, the “Ratio*” value on BRM (ratio of BRG1 IC50 to BRM IC50) is given as 10.65.

Consider `CC1CN(c2cccc(-c3ccc4cnc(CNC(=O)c5ccc6c(c5)S(=O)(=O)C(C)CN6C)cc4n3)n2)CC(C)O1` (stereo not drawn) [Compound 498], for which the IC50 on BRM (setting [1]) came out at 26.6 nM; at BRG-1 (setting [1]), 439 nM. The “Ratio*” value at BRM (ratio of BRG1 IC50 to BRM IC50) is on record as 16.52.

In the case of `Cc1nc(C)c2c(n1)N(c1ccc3cnc(CNC(=O)c4ccc5c(c4)S(=O)(=O)CCOC5)cc3n1)CCC2` [Compound 841], the IC50 was found to be 290 nM against BRM (ADP-Glo ATPase assay) and 2080 nM on BRG-1 (ADP-Glo ATPase assay). Besides, the “Ratio*” value on BRM (ratio BRG1 IC50 / BRM IC50) came to 7.16.

For the compound `O=C(NCc1cc2nc(-c3cccc(N4CC(C5(F)COC5)C4)n3)ccc2cn1)c1ccc2c(c1)S(=O)(=O)CCOC2` [Compound 797], the IC50 is 18.8 nM on BRM (ADP-Glo ATPase assay) and 190 nM on BRG-1 (ADP-Glo ATPase assay). Further, at BRM (ratio BRG1 IC50 / BRM IC50), the “Ratio*” value is 10.11.

As for `COCCN1CCOc2c(-c3ccc4cnc(CNC(=O)c5ccc6c(c5)S(=O)(=O)CCOC6)cc4n3)cccc21` [Compound 172], the IC50 at BRM (ADP-Glo ATPase assay) came out at 9.2 nM; at BRG-1 (ADP-Glo ATPase assay) it was 105 nM. In addition, the “Ratio* (BRG1 IC50 (μM) divided by BRM IC50 (μM))” value at BRM was 11.42.

In the case of `C[C@@H]1CN(c2ccc(F)c(-c3ccc4cnc(CNC(=O)c5ccc6c(c5)S(=O)(=O)CCOC6)cc4n3)n2)C[C@H](C)O1` [Compound 166], the results for the IC50 against BRM (ADP-Glo ATPase assay) and at BRG-1 (ADP-Glo ATPase assay) were 16.8 nM and 206 nM, respectively. The “Ratio* (BRG1 IC50 (μM) divided by BRM IC50 (μM))” value on BRM amounted to 12.29.

On to `O=C(NCc1cc2nc(N3CCCc4ccc(C(F)(F)F)cc43)ccc2cn1)c1ccc2c(c1)S(=O)(=O)CCOC2` [Compound 525], for which the IC50 was 25.1 nM against BRM (setting [1]) and 373 nM at BRG-1 (setting [1]). In addition, the “Ratio*” value at BRM (ratio of BRG1 IC50 to BRM IC50) was 14.85.

`O=C(NCc1cc2nc(N3CCCCc4cccnc43)ccc2cn1)c1ccc2c(c1)S(=O)(=O)CCOC2` [Compound 469]: the IC50 is 2340 nM against BRM (setting [1]) and 4260 nM at BRG-1 (setting [1]). For the same compound, on BRM (ratio of BRG1 IC50 to BRM IC50), the “Ratio*” value worked out at 1.82.

`C[C@@H]1CCS(=O)(=O)c2cc(C(=O)NCc3cc4nc(-c5cccc(N6C[C@@H](C)O[C@@H](C)C6)n5)ccc4cn3)ccc2O1` [Compound 416]: the half-inhibitory concentration (IC50) came out at 98.3 nM at BRM (setting [1]) and 2130 nM on BRG-1 (setting [1]). Also, on BRM (ratio of BRG1 IC50 to BRM IC50), the “Ratio*” value was 21.63.

For the compound `CC1CCc2ccc(-c3ccc4cnc(CNC(=O)c5ccc6c(c5)S(=O)(=O)CCOC6)cc4n3)nc2N1C` (stereo not drawn) [Compound 414], the IC50 on BRM (setting [1]) stood at 23.3 nM; on BRG-1 (setting [1]) it was 193 nM. Besides, on BRM (ratio of BRG1 IC50 to BRM IC50), the “Ratio*” value is recorded as 8.27.

For the compound `[2H]C1([2H])OC([2H])([2H])C([2H])([2H])S(=O)(=O)c2cc(C(=O)NCc3cc4nc(N5CCOc6ccc(C(F)F)nc65)ccc4cn3)ccc21` [Compound 807], the IC50 on BRM (ADP-Glo ATPase assay) amounted to 19.1 nM; on BRG-1 (ADP-Glo ATPase assay), 486 nM. The “Ratio*” value on BRM (ratio BRG1 IC50 / BRM IC50) was 25.47.

Regarding `O=C(NCc1cc2cc(-c3cncc(N4CCC4)n3)ccc2cn1)c1ccc2c(c1)S(=O)(=O)CCOC2` [Compound 257], the IC50 on BRM (ADP-Glo ATPase assay) is 15.4 nM; on BRG-1 (ADP-Glo ATPase assay) it was 107 nM. In addition, the “Ratio* (BRG1 IC50 (μM) divided by BRM IC50 (μM))” value on BRM amounted to 6.99.

As to `O=C(NCc1cc2nc(-c3cccc([C@@H]4CC4(F)F)c3)ccc2cn1)c1ccc2c(c1)S(=O)(=O)CCOC2` [Compound 251], the IC50 against BRM (ADP-Glo ATPase assay) was found to be 176 nM; at BRG-1 (ADP-Glo ATPase assay), 1700 nM. The “Ratio* (BRG1 IC50 (μM) divided by BRM IC50 (μM))” value on BRM amounted to 9.69.

Regarding `O=C(NCc1cc2nc(-c3cccc(N4CCOCC4)n3)ccc2cn1)c1ccc2c(c1)S(=O)(=O)CCOC2` [Compound 226], the IC50 at BRM (ADP-Glo ATPase assay) was found to be 11.1 nM; on BRG-1 (ADP-Glo ATPase assay) it was 136 nM. The “Ratio* (BRG1 IC50 (μM) divided by BRM IC50 (μM))” value at BRM is listed as 12.29.

Turning to `CS(=O)(=O)c1cc(C(=O)NCc2cc3nc(-c4cncc(C5CC5)n4)ccc3cn2)ccc1CC(F)F` [Compound 164], the IC50 is 110 nM on BRM (ADP-Glo ATPase assay) and 1410 nM on BRG-1 (ADP-Glo ATPase assay). Moreover, the “Ratio* (BRG1 IC50 (μM) divided by BRM IC50 (μM))” value at BRM was 12.80.

Regarding `C[C@@H]1CN(c2cccc(-c3ccc4cnc(CNC(=O)c5ccc6c(c5)S(=O)(=O)CCOC6(C)C)cc4n3)n2)C[C@H](C)O1` [Compound 655], the IC50 is 249 nM at BRM (setting [1]) and 3930 nM at BRG-1 (setting [1]). The “Ratio*” value at BRM (ratio of BRG1 IC50 to BRM IC50) is recorded as 15.80.

For `C[C@@H]1CN(c2cccc(-c3ccc4cnc(CNC(=O)c5ccc6c(c5)S(=O)(=O)[C@@H](C)COC6)cc4n3)c2F)C[C@H](C)O1` [Compound 609], the IC50 was 39.2 nM against BRM (setting [1]) and 1110 nM on BRG-1 (setting [1]). Besides, on BRM (ratio of BRG1 IC50 to BRM IC50), the “Ratio*” value was determined as 28.40.

Take `COc1ncc(F)c2c1CCCN2c1ccc2cnc(CNC(=O)c3ccc4c(c3)S(=O)(=O)CCOC4)cc2n1` [Compound 825]: the IC50 is 31.9 nM on BRM (ADP-Glo ATPase assay) and 246 nM on BRG-1 (ADP-Glo ATPase assay). At BRM (ratio BRG1 IC50 / BRM IC50), the “Ratio*” value came out at 7.70.

For `COCCc1ccc2c(n1)N(c1ccc3cnc(CNC(=O)c4ccc5c(c4)S(=O)(=O)CCOC5)cc3n1)CCC2` [Compound 651], the IC50 against BRM (setting [1]) amounted to 55.3 nM; at BRG-1 (setting [1]), 1700 nM. For the same compound, the “Ratio*” value at BRM (ratio of BRG1 IC50 to BRM IC50) is given as 30.77.

For `O=C(NCc1cc2nc(-c3cccc(OC4CC(F)(F)C4)n3)ccc2cn1)c1ccc2c(c1)S(=O)(=O)CCOC2` [Compound 74], the IC50 on BRM (ADP-Glo ATPase assay) was 122 nM; on BRG-1 (ADP-Glo ATPase assay) it was 1180 nM. Besides, the “Ratio* (BRG1 IC50 (μM) divided by BRM IC50 (μM))” value at BRM turned out to be 9.63.

As for `COCc1cc(F)c2c(c1)OCCN2c1ccc2cnc(CNC(=O)c3ccc4c(c3)S(=O)(=O)CCOC4)cc2n1` [Compound 796], the values for the IC50 against BRM (ADP-Glo ATPase assay) and at BRG-1 (ADP-Glo ATPase assay) were 20.8 nM and 272 nM, respectively. In addition, at BRM (ratio BRG1 IC50 / BRM IC50), the “Ratio*” value is 13.06.

Turning to `CO[C@@H]1CCN(c2cccc(-c3ccc4cnc(CNC(=O)c5ccc6c(c5)S(=O)(=O)CCOC6)cc4n3)n2)C1` [Compound 200], the IC50 was 8.1 nM against BRM (ADP-Glo ATPase assay) and 59.1 nM on BRG-1 (ADP-Glo ATPase assay). For the same compound, on BRM, the “Ratio* (BRG1 IC50 (μM) divided by BRM IC50 (μM))” value was 7.31.

`C[C@@H]1CN(c2cccc(-c3ccc4cnc(CNC(=O)c5ccc(Cl)c(S(C)(=O)=O)c5)cc4n3)n2)C[C@@H](C)O1` [Compound 177]: the IC50 at BRM (ADP-Glo ATPase assay) came out at 15.8 nM; at BRG-1 (ADP-Glo ATPase assay), 222 nM. For the same compound, the “Ratio* (BRG1 IC50 (μM) divided by BRM IC50 (μM))” value at BRM was determined as 14.02.

For the compound `O=C(NCc1cc2nc(-c3ccccc3OC3CC3)ccc2cn1)c1ccc2c(c1)S(=O)(=O)CCOC2` [Compound 232], the half-maximal inhibitory concentration (IC50) against BRM (ADP-Glo ATPase assay) worked out at 58.5 nM; at BRG-1 (ADP-Glo ATPase assay), 410 nM. Besides, the “Ratio* (BRG1 IC50 (μM) divided by BRM IC50 (μM))” value on BRM was 7.00.

For orientation: IC50 means the concentration needed to halve the response being measured.
